Test results taken from patent publication US6603023B2 (priority 1996, dated 2003).
Like-named read-outs stand apart in the source and are kept apart here.

Key:
[1] = test system: CCRF-CEM/VBL100; assay: cells; assay type: cell-based, human; conditions: read-out: IC50
Description: (§1) The drug-resistant cell lines were continuously cultured in the presence of the selecting agent, AD, DX, VBL or VM to maintain the drug resistant phenotypes. […] All cells were cultured in RPMI 1640-10% FBS at 37° C. 5% CO2 (see below).
(§2) The cells were cultured at an initial density of 5×10^4 cells/mL. They were maintained in a 5% CO2-humidified atmosphere at 37° C. in RPMI-1640 medium (GIBCO-BRL, Gaithersburg, Md.) containing penicillin (100 U/mL), streptomycin ([…]) (GIBCO-BRL) and 10% heat inactivate fetal bovine serum. Culture for cell suspension (such as for CCRF-CEM, P388 and sublines), were performed by the XTT-microculture tetrazonium method (Scudiero, D. A. et al., Cancer Res. 1988, 48, 4827-4833) in duplicate in 96-well microtiter plates.
(§3) 2′,3′-Bis(methoxy-4-nitro-5-sufophenyl)-5-[(phenylamino)carbonyl]2H-tetrazolium hyudroxide (XTT) was prepared at 1 mg/mL in prewarmed (37° C.) medium without serum. Phenazine methosulfate (PMS) and fresh XTT were mixed together to obtain 0.025 mM PMS-XTT solution (25 μL of the stock 5 mM PMS was added per 5 mL of 1 mg/mL XTT). Following a 72 h incubation, 50 μL of the assay aliquots were added to each well of the cell culture. After incubation at 37° C. for 4 h, absorbance at 450 nm and 630 nm was measured with a microplate reader (EL340, Bio-Tek Instruments, Inc., Winooski, Vt.).

[2] = test system: CCRF-CEM human T-cell acute lymphoblastic leukemia cell line; assay: XTT cytotoxicity (cell growth inhibition), CCRF-CEM; conditions: for Rel. Value (potency relative to Epo B): CCRF-CEM leukemic cells
Description: The DC-3F hamster lung fibroblast cell line and its actinomycin D-selected sublines (DC-3F/ADII and DC-3F/ADX) were obtained from the Memorial Sloan-Kettering Cancer Center (MSKCC).
as §1, §2, §3

[3] = test system: Human Lymphoblastic Leukemia CCRF-CEM; assay: CCRF-CEM xenograft in nude mice, i.v. 6 h infusion; assay type: in vivo; conditions: for Average Body Weight, Day 21: initial weight
[4] = test system: human mammary carcinoma MX-1 xenograft
Description: DMSO was used as a vehicle for epothilones. Each mouse received ≦40 μL DMSO in all experiments.
Athymic nude mice (nu/nu) were used for MX-1 and MCF-7/Adr human mammary carcinoma xenografts. Mice were obtained from Taconic Laboratory Animals and Service (Germantown, N.Y.: outbred, Swiss background).

[5] = Table 5, CCRF-CEM/VLB, single determinations
[6] = Dose DesoxyepoB 40, Taxol 20, i.v. infusion 6 hr on day 21,23,25,27
[7] = Table 26, Dose Q2D x 4: DesoxyepoB 40, Taxol 20
[8] = high doses: dEpoB 25, EpoB 0.6, Taxol 10, Vinblastine 0.4 mg/kg i.p. Q2D from day 7
[9] = low doses: dEpoB 15, EpoB 0.3, Taxol 5, Vinblastine 0.2 mg/kg i.p. Q2D day 7-15

## CCC/C1=C\C[C@@H](/C(C)=C/c2csc(C)n2)OC(=O)C[C@H](O)C(C)(C)C(=O)[C@H](C)[C@@H](O)[C@@H](C)CCC1 [#17]
[1]; [5]
  IC50: 254 nM
[1]; Table 7, CEM/VBL
  IC50: 254 nM
[1]
  IC50: 254 nM
[2]
  IC50: 90 nM
  Rel. Value (potency relative to Epo B): 1/257
[2]; Table 5, single determinations
  IC50: 90 nM
[2]; Table 7, CEM
  IC50: 90 nM

## C/C(=C\c1coc(C)n1)[C@@H]1C/C=C\CCC[C@H](C)[C@H](O)[C@@H](C)C(=O)C(C)(C)[C@@H](O)CC(=O)O1 [#20]
[1]; [5]
  IC50: 49 nM
[1]; Table 7, CEM/VBL
  IC50: 49 nM
[1]
  IC50: 49 nM
[2]
  IC50: 30 nM
[2]; Table 5, single determinations
  IC50: 30 nM
[2]; Table 7, CEM
  IC50: 30 nM

## C/C1=C/C[C@@H](/C(C)=C/c2ccccc2)OC(=O)C[C@H](O)C(C)(C)C(=O)[C@H](C)[C@@H](O)[C@@H](C)CCC1 [#22]
[1]; [5]
  IC50: 146 nM
[1]; Table 7, CEM/VBL
  IC50: 146 nM
[1]
  IC50: 146 nM
[2]; Table 5, single determinations
  IC50: 98 nM
[2]; Table 7, CEM
  IC50: 98 nM

## CCC[C@@]12CCC[C@H](C)[C@H](O)[C@@H](C)C(=O)C(C)(C)[C@@H](O)CC(=O)O[C@H](/C(C)=C/c3csc(C)n3)C[C@@H]1O2 [#24]
[1]; [5]
  IC50: 53 nM
[1]; Table 7, CEM/VBL
  IC50: 53 nM
[1]
  IC50: 53 nM
[2]
  IC50: 7.8 nM
[2]; Table 5, single determinations
  IC50: 7.8 nM
[2]; Table 7, CEM
  IC50: 7.8 nM

## CC/C1=C/C[C@@H](/C(C)=C/c2csc(C)n2)OC(=O)C[C@H](O)C(C)(C)C(=O)[C@H](C)[C@@H](O)[C@@H](C)CCC1 [#25]
[1]; [5]
  IC50: 77 nM
[1]; Table 7, CEM/VBL
  IC50: 77 nM
[1]
  IC50: 77 nM
[2]
  IC50: 21 nM
  Rel. Value (potency relative to Epo B): 1/60
[2]; Table 7, CEM
  IC50: 21.2 nM

## CCC1=CCC(C(C)=Cc2csc(C)n2)OC(=O)CC(O)C(C)(C)C(=O)C(C)C(O)C(C)CCC1 (stereo not shown) [#26]
[1]; [5]
  IC50: 197 nM
[1]; Table 7, CEM/VBL
  IC50: 197 nM
[1]
  IC50: 197 nM
[2]
  IC50: 5 nM
  Rel. Value (potency relative to Epo B): 1/157
[2]; Table 5, single determinations
  IC50: 55 nM
[2]; Table 7, CEM
  IC50: 54.5 nM

## CC[C@@]12CCC[C@H](C)[C@H](O)[C@@H](C)C(=O)C(C)(C)[C@@H](O)CC(=O)O[C@H](/C(C)=C/c3csc(C)n3)C[C@@H]1O2 [#27]
[1]; [5]
  IC50: 7.2 nM
[1]; Table 7, CEM/VBL
  IC50: 7.2 nM
[1]
  IC50: 7.2 nM
[2]
  IC50: 1 nM
[2]; CCRF-CEM cells
  fold more potent than Taxol: > 2 fold
[2]; Table 5, single determinations
  IC50: 1 nM
[2]; Table 7, CEM
  IC50: 1 nM

## C/C1=C/C[C@@H](/C(C)=C/c2csc(C)n2)OC(=O)C[C@H](O)C(C)(C)C(=O)[C@H](C)[C@@H](O)[C@@H](C)CCC1 [DesoxyepoB]
[3]; [6]
  Average Body Weight Changes, Day 23: -1.4 g
  Average Body Weight Changes, Day 25: -3.6 g
  Average Body Weight Changes, Day 27: -3.9 g
  Average Body Weight Changes, Day 29: -5.2 g
  Average Body Weight Changes, Day 31: -4.2 g
  Average Body Weight Changes, Day 33: -3.1 g
  Average Body Weight Changes, Day 35: -2.3 g
  Average Body Weight Changes, Day 37: -1.2 g
  Average Body Weight Changes, Day 39: -0.2 g
  Average Body Weight Changes, Day 41: +0.9 g
  Average Tumor Size (T/C), Day 21: 1.10 T/C
  Average Tumor Size (T/C), Day 23: 0.73 T/C
  Average Tumor Size (T/C), Day 25: 0.31 T/C
  Average Tumor Size (T/C), Day 27: 0.09 T/C
  Average Tumor Size (T/C), Day 29: 0 T/C
  Average Tumor Size (T/C), Day 31: 0 T/C
  Average Tumor Size (T/C), Day 33: 0 T/C
  Average Tumor Size (T/C), Day 35: 0 T/C
  Proportion of Tumor Disappearance (n/total), Day 21: 0/3
  Proportion of Tumor Disappearance (n/total), Day 23: 0/3
  Proportion of Tumor Disappearance (n/total), Day 25: 0/3
  Proportion of Tumor Disappearance (n/total), Day 27: 0/3
  Proportion of Tumor Disappearance (n/total), Day 29: 3/3
  Proportion of Tumor Disappearance (n/total), Day 31: 3/3
  Proportion of Tumor Disappearance (n/total), Day 33: 3/3
  Proportion of Tumor Disappearance (n/total), Day 35: 3/3
  Proportion of Tumor Disappearance (n/total), Day 37: 1/3
  Proportion of Tumor Disappearance (n/total), Day 39: 1/3
  Proportion of Tumor Disappearance (n/total), Day 41: 0/3
  Average Body Weight, Day 21: 26.6 g
[3]; [7]
  Average Body Weight Change, Day 23: -1.4 g
  Average Body Weight Change, Day 25: -3.6 g
  Average Body Weight Change, Day 27: -3.9 g
  Average Body Weight Change, Day 29: -5.2 g
  Average Body Weight Change, Day 31: -4.2 g
  Average Tumor Size (T/C), Day 23: 0.68 T/C
  Average Tumor Size (T/C), Day 25: 0.30 T/C
  Average Tumor Size (T/C), Day 27: 0.09 T/C
  Average Tumor Size (T/C), Day 29: 0 T/C
  Average Tumor Size (T/C), Day 31: 0 T/C
  Tumor Disappearance: 3/3
  Average Body Weight, Day 21: 26.6 g

## C/C1=C/C[C@@H](/C(C)=C/c2csc(C)n2)OC(=O)C[C@H](O)C(C)(C)C(=O)[C@H](C)[C@@H](O)[C@@H](C)CCC1 [Desoxyepothione B]
[4]; Desoxyepothilone B 25 mg/kg i.p. Q2D day 7-15
  cured on day 35 (no detectable tumor): (1/6 cured on day 35)
[4]; [8]
  Average Body Weight (change), Day 11: +0.4 g
  Average Body Weight (change), Day 13: +0.7 g
  Average Body Weight (change), Day 15: +1.0 g
  Average Body Weight Change, Day 17: +0.7 g
  Average Tumor Volume (T/C), Day 11: 0.38 T/C
  Average Tumor Volume (T/C), Day 13: 0.11 T/C
  Average Tumor Volume (T/C), Day 15: 0.05 T/C
  Average Tumor Volume (T/C), Day 17: 0.04 T/C
  Note: died (mice died/total): 0/6 died
[4]; initial weight, first treatment day, high doses: dEpoB 25, EpoB 0.6, Taxol 10, Vinblastine 0.4 mg/kg i.p. Q2D from day 7
  Average Body Weight, Day 7: 27.0 g
[4]; [9]
  Average Body Weight (change), Day 11: +0.8 g
  Average Body Weight (change), Day 13: +1.1 g
  Average Body Weight (change), Day 15: +1.6 g
  Average Body Weight Change, Day 17: +1.5 g
  Average Tumor Volume (T/C), Day 11: 0.65 T/C
  Average Tumor Volume (T/C), Day 13: 0.46 T/C
  Average Tumor Volume (T/C), Day 15: 0.49 T/C
  Average Tumor Volume (T/C), Day 17: 0.41 T/C
  Note: died (mice died/total): 0/6 died
